The values below come from patent US20220162188A1, “ISOPRENOIDS AND METHODS OF MAKING THEREOF” (NORTH CAROLINA STATE UNIVERSITY, priority 2019, published 2022).

Entries after “also recorded” stand apart in the source; their conditions may differ.

One series deals with PhoN. Kind of series: Substrate specificity of wild-type PhoN, HR-LCMS. In kind it is biochemical, Shigella flexneri. As to conditions: alcohol 100 mM, PhoN 20 μg/mL, ATP 50 mM. The procedure: Broad substrate specificity of wild-type PhoN. Each commercially available alcohol (100 mM) was tested for activity with purified PhoN (20 μg/mL) and ATP (50 mM). The product mixtures were analyzed by high resolution liquid chromatography mass spectrometry (HR-LCMS) to quantify the conversion of alcohol to mono-phosphate. Quantification was achieved by the addition of an internal standard (either geranyl phosphate or cinnamyl monophosphate) at known fixed concentration. The results are illustrated in FIG. 54 and FIG. 55.

The next series deals with FtmPT1 M364G (Aspergillus fumigatus, UniProt Q4WAW7, M364G). As to conditions: pyrophosphate 2 mM, cyclic dipeptide 1 mM.
Another series has as its target CpaD I329G (Aspergillus oryzae, UniProt F5HN73, I329G). As to the kind of experiment: Substrate specificity of prenyltransferase mutant CpaD I329G in vitro. The note with it: pyrophosphate 2 mM, cyclic dipeptide 1 mM, enzyme 1 mg/mL. In kind it is biochemical. From the text: Altered substrate specificity of the prenyltransferase mutant CpaD 1329G in vitro. […] The results are illustrated in FIG. 62 and FIG. 63.

In series [1] the target is T1, isopentenyl phosphate kinase (IPK) (Thermoplasma acidophilum, UniProt Q9HLX1).
T1 sequence (Q9HLX1 1-245): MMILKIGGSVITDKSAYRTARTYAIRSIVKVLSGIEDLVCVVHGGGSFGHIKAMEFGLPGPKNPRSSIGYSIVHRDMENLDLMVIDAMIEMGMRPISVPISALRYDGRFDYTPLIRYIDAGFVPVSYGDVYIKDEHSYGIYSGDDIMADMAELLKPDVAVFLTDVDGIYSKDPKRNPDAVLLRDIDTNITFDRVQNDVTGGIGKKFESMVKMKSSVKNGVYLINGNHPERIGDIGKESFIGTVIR
As to the kind of experiment: NADH-coupled kinetic assay of IPK. The note with it: for kcat fold higher than that with IP: relative to natural substrate IP.

The target of a further series is FgaPT2 M328G (Aspergillus fumigatus, UniProt Q50EL0, M328G). Kind of series: Substrate specificity of FgaPT2 mutant M328G in vitro. In kind it is biochemical. The note with it: pyrophosphate 3 mM, enzyme 350 μg/mL, Trp 1 mM. On the procedure:
Altered substrate specificity of the prenyltransferase FgaPT2 mutant M328G in vitro. Each chemically synthesized pyrophosphate (3 mM) was tested for activity with purified FgaPT2 M328 (350 μg/mL) and Trp (1 mM). […] The results are illustrated in FIG. 58 and FIG. 59.

The next series concerns the target FgaPT2 (Aspergillus fumigatus, UniProt Q50EL0). Kind of series: Substrate specificity of wild-type prenyltransferase FgaPT2 in vitro. In kind it is biochemical. As to conditions: pyrophosphate 3 mM, FgaPT2 200 μg/mL, Trp 1 mM. On the procedure: Broad substrate specificity of the wild-type prenyltransferase FgaPT2 in vitro. Each chemically synthesized pyrophosphate (3 mM) was tested for activity with purified FgaPT2 (200 μg/mL) and Trp (1 mM). The product mixtures were analyzed by HR-LCMS to identify the mass ions consistent with the expected alkylated product. The substrate (Trp) and product peak areas were determined by high performance liquid chromatography (HPLC) at a detection wavelength of 269 nm, and the conversion was calculated. The results are illustrated in FIG. 56 and FIG. 57.

Series [2] addresses IspA, a farnesyl diphosphate synthase (FPPase) (Escherichia coli, UniProt P22939). The note with it: wild-type IspA, DMAPP as starter unit.
Substrate in series [3]: CC(C)=CCOP(=O)(O)O
Kind of series: purified protein, by the assay type. The note with it: other: IPK with monophosphorylated substrate, ± SD of the mean, 1 mM ATP, 30° C., pH 8.0.

Substrate in series [4]: C=C(C)CCOP(=O)(O)O
Kind of series: purified protein, by the assay type. As to conditions: other: IPK with monophosphorylated substrate, ± SD of the mean, 1 mM ATP, 30° C., pH 8.0.

Chain of IspA, a farnesyl diphosphate synthase (FPPase) (P22939 whole entry): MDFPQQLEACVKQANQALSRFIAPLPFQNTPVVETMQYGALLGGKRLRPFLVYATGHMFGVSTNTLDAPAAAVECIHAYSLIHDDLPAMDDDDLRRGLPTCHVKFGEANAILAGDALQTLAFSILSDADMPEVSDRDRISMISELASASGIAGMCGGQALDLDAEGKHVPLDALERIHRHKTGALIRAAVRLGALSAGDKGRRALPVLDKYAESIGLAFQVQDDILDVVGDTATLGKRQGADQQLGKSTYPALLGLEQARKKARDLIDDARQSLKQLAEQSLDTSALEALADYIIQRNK
Chain of FgaPT2 M328G (Q50EL0 whole entry M328G): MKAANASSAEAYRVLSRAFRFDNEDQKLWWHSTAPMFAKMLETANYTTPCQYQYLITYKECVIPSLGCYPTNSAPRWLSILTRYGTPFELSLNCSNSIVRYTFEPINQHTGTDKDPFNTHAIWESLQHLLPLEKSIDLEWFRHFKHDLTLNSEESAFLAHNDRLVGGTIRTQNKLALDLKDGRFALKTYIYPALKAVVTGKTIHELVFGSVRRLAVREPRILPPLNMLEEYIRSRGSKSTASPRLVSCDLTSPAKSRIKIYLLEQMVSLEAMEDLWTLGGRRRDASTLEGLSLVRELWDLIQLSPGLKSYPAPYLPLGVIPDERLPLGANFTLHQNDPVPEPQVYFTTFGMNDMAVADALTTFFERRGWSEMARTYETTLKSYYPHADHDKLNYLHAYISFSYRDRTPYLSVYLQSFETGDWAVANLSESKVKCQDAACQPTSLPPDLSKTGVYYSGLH
Chain of FgaPT2 (Q50EL0 whole entry): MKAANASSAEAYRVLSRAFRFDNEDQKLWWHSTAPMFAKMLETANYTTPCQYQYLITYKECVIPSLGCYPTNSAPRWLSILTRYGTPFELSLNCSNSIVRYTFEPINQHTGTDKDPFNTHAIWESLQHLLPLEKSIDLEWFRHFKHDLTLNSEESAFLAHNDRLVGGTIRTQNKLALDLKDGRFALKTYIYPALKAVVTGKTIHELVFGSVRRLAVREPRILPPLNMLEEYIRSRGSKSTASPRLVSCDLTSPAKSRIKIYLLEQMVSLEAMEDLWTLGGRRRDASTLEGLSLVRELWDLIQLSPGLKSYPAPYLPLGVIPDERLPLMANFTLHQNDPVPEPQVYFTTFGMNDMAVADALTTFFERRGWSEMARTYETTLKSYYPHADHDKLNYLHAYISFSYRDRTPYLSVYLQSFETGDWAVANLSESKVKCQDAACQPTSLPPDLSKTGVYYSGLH
Chain of CpaD I329G (F5HN73 whole entry I329G): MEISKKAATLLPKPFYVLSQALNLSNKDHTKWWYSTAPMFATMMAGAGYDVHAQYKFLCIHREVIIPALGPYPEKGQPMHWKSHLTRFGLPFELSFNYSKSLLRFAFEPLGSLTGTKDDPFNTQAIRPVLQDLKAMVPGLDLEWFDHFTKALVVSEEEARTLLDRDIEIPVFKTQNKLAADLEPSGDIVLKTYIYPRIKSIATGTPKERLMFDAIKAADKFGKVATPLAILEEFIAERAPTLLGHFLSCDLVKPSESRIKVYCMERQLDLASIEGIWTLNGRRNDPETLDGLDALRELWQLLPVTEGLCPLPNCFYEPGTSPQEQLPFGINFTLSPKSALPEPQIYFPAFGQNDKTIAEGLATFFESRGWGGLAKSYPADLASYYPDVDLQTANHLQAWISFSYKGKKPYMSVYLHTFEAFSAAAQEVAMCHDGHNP
Chain of FtmPT1 M364G (Q4WAW7 whole entry M364G): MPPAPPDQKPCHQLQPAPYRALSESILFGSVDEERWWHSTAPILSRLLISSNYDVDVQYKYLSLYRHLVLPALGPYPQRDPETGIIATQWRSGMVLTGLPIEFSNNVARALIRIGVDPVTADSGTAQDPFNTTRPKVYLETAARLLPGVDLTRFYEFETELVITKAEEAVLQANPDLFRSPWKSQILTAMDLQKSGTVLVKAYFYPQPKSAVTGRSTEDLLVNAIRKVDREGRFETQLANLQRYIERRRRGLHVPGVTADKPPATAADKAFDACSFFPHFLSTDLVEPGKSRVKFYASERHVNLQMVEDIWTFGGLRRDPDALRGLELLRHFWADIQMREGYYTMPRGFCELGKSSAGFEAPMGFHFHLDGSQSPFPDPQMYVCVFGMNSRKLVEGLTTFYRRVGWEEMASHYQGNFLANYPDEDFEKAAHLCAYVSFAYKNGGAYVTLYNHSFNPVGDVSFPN

As for `C=CCCOP(=O)(O)O` [Substrate 1], in the series on PhoN, the “PhoN-catalyzed phosphorylation of alcohol: expected product detected” value (from here on “PhoN-catalyzed phosphorylation”) was “mass ions were detected by HR-LCMS consistent with the expected product”. For the same molecule, the “FtmPT1 M364G-catalyzed alkylation of cyclic dipeptide: expected product detected” value (“FtmPT1 M364G-catalyzed alkylation” for short) on FtmPT1 M364G is “products detected by HPLC and confirmed by LR-LCMS”. The “CpaD I329G-catalyzed alkylation of cyclic dipeptide: expected product detected” value (“CpaD I329G-catalyzed alkylation” below) at CpaD I329G is “products detected by HPLC and confirmed by LR-LCMS”. The “kcat fold higher than that with IP” value in [1] worked out at 4.25 fold. In addition, the “FgaPT2 M328G-catalyzed alkylation of Trp: expected product detected” value (“FgaPT2 M328G-catalyzed alkylation of Trp” for short) on FgaPT2 M328G is “products detected by HPLC and confirmed by LR-LCMS”.
For the molecule `C=C(Br)CCOP(=O)(O)O` [Substrate 3], the “PhoN-catalyzed phosphorylation” value with PhoN is recorded as “mass ions were detected by HR-LCMS consistent with the expected product”. For the same molecule, the “FtmPT1 M364G-catalyzed alkylation” value on FtmPT1 M364G was “products detected by HPLC and confirmed by LR-LCMS”. At CpaD I329G, the “CpaD I329G-catalyzed alkylation” value is “products detected by HPLC and confirmed by LR-LCMS”. The “kcat fold higher than that with IP” value in series [1] turned out to be 5.1 fold. In addition, on FgaPT2 M328G, the “FgaPT2 M328G-catalyzed alkylation of Trp” value was “products detected by HPLC and confirmed by LR-LCMS”.
Turning to `C#CCCCOP(=O)(O)O` [Substrate 4], the “PhoN-catalyzed phosphorylation” value in the series with PhoN was “mass ions were detected by HR-LCMS consistent with the expected product”. Besides, the “FtmPT1 M364G-catalyzed alkylation” value on FtmPT1 M364G was “products detected by HPLC and confirmed by LR-LCMS”. Further, the “CpaD I329G-catalyzed alkylation” value on CpaD I329G was “products detected by HPLC and confirmed by LR-LCMS”. Besides, the “FgaPT2 M328G-catalyzed alkylation of Trp” value at FgaPT2 M328G is “products detected by HPLC and confirmed by LR-LCMS”.
In the case of `C=C(C)COP(=O)(O)O` [Substrate 5], the “PhoN-catalyzed phosphorylation” value in the series with PhoN is listed as “mass ions were detected by HR-LCMS consistent with the expected product”.
As to `C=CCCCOP(=O)(O)O` [Substrate 6], the “FgaPT2-catalyzed alkylation of Trp: expected product detected” value (shortened to “FgaPT2-catalyzed alkylation of Trp”) at FgaPT2 is “mass ions were detected by HR-LCMS consistent with the expected product”. For the same molecule, in series [1] (between 1 and 6), the “fold drop in kcat/Km” value is on record as 3 fold.
For the molecule `CCC/C=C\COP(=O)(O)O` [Substrate 7], at FgaPT2, the “FgaPT2-catalyzed alkylation of Trp” value was “mass ions were detected by HR-LCMS consistent with the expected product”.
Take `CCC/C=C/COP(=O)(O)O` [Substrate 8]: the “FgaPT2-catalyzed alkylation of Trp” value on FgaPT2 is “mass ions were detected by HR-LCMS consistent with the expected product”. In addition, the “fold decrease in kcat/Km” value in series [1] (π-bond geometry of 7 switched from Z to E in 8) is on record as 17 fold.
On to `C#CCCOP(=O)(O)O` [Substrate 9], for which, in the series with PhoN, the “PhoN-catalyzed phosphorylation” value is given as “mass ions were detected by HR-LCMS consistent with the expected product”.
By kcat is commonly meant the maximal rate divided by the concentration of active sites. In general, Km refers to the substrate concentration at which the rate is half of its maximum. With `C=CCCCOP(=O)(O)O` [Substrate 27], the “use as extender unit in place of IPP (GPP analogue by LC-MS), words” value in series [2] is “not utilized by IspA; also recorded: did not facilitate carbon-carbon bond formation; also recorded: did not serve as an extender unit”. The kcat in [1] (IPK with monophosphorylated substrate, ± SD of the mean) is 93.1 ± 2.67 s⁻¹. Also, the Km in series [1] (IPK with monophosphorylated substrate, ± SD of the mean, 1 mM ATP, 30° C.) is 848 ± 57.9 µM.
Turning to `O=P(O)(O)OP(=O)(O)OCc1cccnc1` [Substrate 32], the “use as extender unit in place of IPP (GPP analogue by LC-MS), words” value in series [2] is given as “did not serve as an extender unit”.

B1: isopentenyl phosphate kinase (IPK) (Thermoplasma acidophilum DSM 1728) (protein)
chain: MMILKIGGSVITDKSAYRTARTYAIRSIVKVLSGIEDLVCVVHGGGSFGHIKAMEFGLPGPKNPRSSIGYSIVHRDMENLDLMVIDAMIEMGMRPISVPISALRYDGRFDYTPLIRYIDAGFVPVSYGDVYIKDEHSYGIYSGDDIMADMAELLKPDVAVFLTDVDGIYSKDPKRNPDAVLLRDIDTNITFDRVQNDVTGGIGKKFESMVKMKSSVKNGVYLINGNHPERIGDIGKESFIGTVIR
A word on the kcat/Km: it is the turnover number divided by the Michaelis constant. For the molecule B1, in series [3], the Km stood at 134 ± 38.2 µM, the kcat was 32.7 ± 2.05 s⁻¹ and the kcat/Km was found to be 230000 M⁻¹ s⁻¹. In series [4], the Km came out at 27.9 ± 4.37 µM, the kcat was determined as 43.9 ± 1.1 s⁻¹ and the kcat/Km turned out to be 1.5e+06 M⁻¹ s⁻¹.
